Reference: publication PMC4031276 (Molecular pharmaceutics, 2013)
Like-named read-outs stand apart in the source and are kept apart here. Marks after values point to notes of the source that are not given here. One block for each compound: values may come before it.

Legend:
hASBT [1] = biological target: T1, hASBT (Homo sapiens, UniProt Q12908); assay: cis-inhibition of taurocholate; settings: for fold weaker inhibitory potency (Ki) than corresponding native BA: 3-hydroxyl epimerization (α to β)
T1 sequence (Q12908 1-348): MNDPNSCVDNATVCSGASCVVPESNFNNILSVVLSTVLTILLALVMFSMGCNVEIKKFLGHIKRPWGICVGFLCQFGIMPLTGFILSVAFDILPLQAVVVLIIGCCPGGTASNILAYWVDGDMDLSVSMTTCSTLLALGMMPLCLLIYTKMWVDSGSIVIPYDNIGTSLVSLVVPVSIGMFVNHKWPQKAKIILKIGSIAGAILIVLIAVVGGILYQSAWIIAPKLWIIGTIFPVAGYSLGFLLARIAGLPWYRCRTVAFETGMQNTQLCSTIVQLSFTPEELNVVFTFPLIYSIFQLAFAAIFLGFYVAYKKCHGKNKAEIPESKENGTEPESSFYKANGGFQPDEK

hASBT [2] = biological target: T1, hASBT; assay: hASBT-mediated active uptake into hASBT-MDCK monolayers; assay type: cell-based; settings: for Kt fold higher than Ki: Kt vs Ki; for Kt (μM ±SEM): Michaelis-Menten transport constant, gly-iBA 1–200 μM, 10 min, 37 °C; for fold lower Jmax than corresponding native BA: TCA-normalized Jmax; for Relative Jmax (% TCA Jmax ±SEM): gly-iBAs, normalised to TCA Jmax
hASBT-MDCK monolayer [3] = settings: for Pp (cm/s ± SEM x 10^6): passive permeability of gly-iBAs, sodium-free buffer
hASBT [4] = biological target: T1, hASBT; settings: read-out: Ki (μM ±SEM); glycine conjugates of native bile acids, provided for comparison; cited from earlier work
hASBT [5] = biological target: T1, hASBT; settings: native glycine conjugates, for comparison; cited from earlier work
hASBT-MDCK monolayer [6] = settings: passive permeability of native glycine conjugates, for comparison; cited from earlier work
[7] = maximum substrate flux, mean ± SEM
[8] = read-out: Ki (μM ±SEM), glycine conjugates of iso-bile acids, TCA 2.5 μM, 10 min, 37 °C, pH 6.8, mean (SEM)

Structure (SMILES): C[C@H](CCC(=O)O)[C@H]1CC[C@H]2[C@@H]3CC[C@@H]4C[C@@H](O)CC[C@]4(C)[C@H]3CC[C@]12C [iLCA, 3β-hydroxy-5β-cholanic acid]
Ki (hASBT [1]): 5.36 µM

Structure (SMILES): C[C@H](CCC(=O)NCC(=O)O)[C@H]1CC[C@H]2[C@@H]3[C@@H](O)C[C@@H]4C[C@@H](O)CC[C@]4(C)[C@H]3CC[C@]12C [gly-iUDCA, 3β,7β-dihydroxy-5β-cholanic acid glycine amide]
Kt fold higher than Ki (hASBT [2]): about 10 fold
Kt (μM ±SEM) (hASBT [2]): 75.3 (22.1) μM
fold lower Jmax than corresponding native BA (hASBT [2]): 16 fold
Relative Jmax (% TCA Jmax ±SEM) (hASBT [2]): 14.0 (2.4) % TCA Jmax
Absolute Jmax (hASBT [2]; [7]): 0.038 ± 0.006 pmol/cm^2/s
Pp (cm/s ± SEM x 10^6) (hASBT-MDCK monolayer [3]): 0.690 (0.090) cm/s x 10^6
Ki (hASBT [1]; [8]): 7.66 µM

Ki (hASBT [1]): 11.4 µM
Structure (SMILES): C[C@H](CCC(=O)O)[C@H]1CC[C@H]2[C@@H]3CC[C@@H]4C[C@@H](O)CC[C@]4(C)[C@H]3C[C@H](O)[C@]12C [iDCA, 3β, 12α-dihydroxy-5β-cholanic acid]

Structure (SMILES): C[C@H](CCC(=O)NCCS(=O)(=O)O)[C@H]1CC[C@H]2[C@@H]3[C@H](O)C[C@@H]4C[C@H](O)CC[C@]4(C)[C@H]3C[C@H](O)[C@]12C [TCA, Taurocholic acid, reference compound]
Absolute Jmax (hASBT [2]): c Absolute Jmax (pmol/cm^2/s) for each gly-iBA were 0.017 ± 0.006 (gly-iLCA), 0.065 ± 0.004 (gly-iCDCA), 0.010 ± 0.003 (gly-iDCA), 0.038 ± 0.006 (gly-iUDCA), and 0.166 ± 0.024 (gly-iCA) respectively. TCA Pp and Jmax were 1.56 x 10^−6 cm/s and 0.271 ± 0.020 pmol/cm^2/s, respectively.

Structure (SMILES): C[C@H](CCC(=O)NCC(=O)O)[C@H]1CC[C@H]2[C@@H]3[C@@H](O)C[C@@H]4C[C@H](O)CC[C@]4(C)[C@H]3CC[C@]12C [Gly-UDCA]
Ki (hASBT [4]): 3.41 µM
Relative Jmax (% TCA Jmax ±SEM) (hASBT [5]): 226 (36) % TCA Jmax
Pp (cm/s ± SEM x 10^6) (hASBT-MDCK monolayer [6]): 1.01 (0.13) cm/s x 10^6

Structure (SMILES): C[C@H](CCC(=O)NCC(=O)O)[C@H]1CC[C@H]2[C@@H]3CC[C@@H]4C[C@H](O)CC[C@]4(C)[C@H]3C[C@H](O)[C@]12C [Gly-DCA]
Ki (hASBT [4]): 3.22 µM
Relative Jmax (% TCA Jmax ±SEM) (hASBT [5]): 349 (47) % TCA Jmax
Pp (cm/s ± SEM x 10^6) (hASBT-MDCK monolayer [6]): 0.520 (0.162) cm/s x 10^6

Structure (SMILES): C[C@H](CCC(=O)NCC(=O)O)[C@H]1CC[C@H]2[C@@H]3CC[C@@H]4C[C@@H](O)CC[C@]4(C)[C@H]3CC[C@]12C [gly-iLCA, 3β-hydroxy-5β-cholanic acid glycine amide]
Estimate for Kt (hASBT [2]; estimate, not determinable due to high passive permeability): 6.82 (4.98) μM
Absolute Jmax (hASBT [2]; [7]): 0.017 ± 0.006 pmol/cm^2/s
Pp (cm/s ± SEM x 10^6) (hASBT-MDCK monolayer [3]): 16.6 (0.8) cm/s x 10^6
Pp fold that of native counterpart (hASBT-MDCK monolayer [3]; vs gly-LCA): 20 fold
fold weaker inhibitory potency (Ki) than corresponding native BA (hASBT [1]): 12 fold
Ki (hASBT [1]; [8]): 5.07 µM

Ki (hASBT [1]): 11.8 µM
fold weaker inhibitory potency (Ki) than corresponding native BA (hASBT [1]): 6 fold
fold more potent (Ki) than iUDCA (hASBT [1]; 7α-hydroxyl vs 7β-epimer): 2 fold
Structure (SMILES): C[C@H](CCC(=O)O)[C@H]1CC[C@H]2[C@@H]3[C@H](O)C[C@@H]4C[C@@H](O)CC[C@]4(C)[C@H]3CC[C@]12C [iCDCA, 3β, 7α-dihydroxy-5β-cholanic acid]

Ki (hASBT [1]): 24.7 µM
Structure (SMILES): C[C@H](CCC(=O)O)[C@H]1CC[C@H]2[C@@H]3[C@@H](O)C[C@@H]4C[C@@H](O)CC[C@]4(C)[C@H]3CC[C@]12C [iUDCA, 3β, 7β-dihydroxy-5β-cholanic acid]

Structure (SMILES): C[C@H](CCC(=O)NCC(=O)O)[C@H]1CC[C@H]2[C@@H]3CC[C@@H]4C[C@@H](O)CC[C@]4(C)[C@H]3C[C@H](O)[C@]12C [gly-iDCA, 3β, 12α-dihydroxy-5β-cholanic acid glycine amide]
Kt (μM ±SEM) (hASBT [2]): 149 (75) ^ns μM
Relative Jmax (% TCA Jmax ±SEM) (hASBT [2]): 3.68 (1.14) ^e % TCA Jmax
Absolute Jmax (hASBT [2]; [7]): 0.010 ± 0.003 pmol/cm^2/s
Pp (cm/s ± SEM x 10^6) (hASBT-MDCK monolayer [3]): 0.730 (0.020) cm/s x 10^6
Ki (hASBT [1]; [8]): 12.4 µM

Structure (SMILES): C[C@H](CCC(=O)NCC(=O)O)[C@H]1CC[C@H]2[C@@H]3[C@H](O)C[C@@H]4C[C@H](O)CC[C@]4(C)[C@H]3C[C@H](O)[C@]12C [Gly-CA]
Ki (hASBT [4]): 7.53 µM
Relative Jmax (% TCA Jmax ±SEM) (hASBT [5]): 152 (24) % TCA Jmax
Pp (cm/s ± SEM x 10^6) (hASBT-MDCK monolayer [6]): 0.220 (0.157) cm/s x 10^6

Structure (SMILES): C[C@H](CCC(=O)NCC(=O)O)[C@H]1CC[C@H]2[C@@H]3[C@H](O)C[C@@H]4C[C@@H](O)CC[C@]4(C)[C@H]3CC[C@]12C [gly-iCDCA, 3β, 7α-dihydroxy-5β-cholanic acid glycine amide]
Kt fold higher than Ki (hASBT [2]): about 10 fold
Kt (μM ±SEM) (hASBT [2]): 59.5 ± 8.8 µM
fold lower Jmax than corresponding native BA (hASBT [2]): 18 fold
Relative Jmax (% TCA Jmax ±SEM) (hASBT [2]): 23.9 (2.3) % TCA Jmax
Absolute Jmax (hASBT [2]; [7]): 0.065 ± 0.004 pmol/cm^2/s
fold weaker transport affinity (Kt) than native counterpart (hASBT [2]; vs gly-CDCA): 90 fold
Pp (cm/s ± SEM x 10^6) (hASBT-MDCK monolayer [3]): 0.058 (0.07) cm/s x 10^6
Ki (hASBT [1]; [8]): 4.53 µM

Structure (SMILES): C[C@H](CCC(=O)NCC(=O)O)[C@H]1CC[C@H]2[C@@H]3[C@H](O)C[C@@H]4C[C@@H](O)CC[C@]4(C)[C@H]3C[C@H](O)[C@]12C [gly-iCA, 3β,7α, 12α-trihydroxy-5β-cholanic acid glycine amide]
Kt fold higher than Ki (hASBT [2]): about 10 fold
Kt (μM ±SEM) (hASBT [2]): 163 (37) μM
fold lower Jmax than corresponding native BA (hASBT [2]): 3 fold
Relative Jmax (% TCA Jmax ±SEM) (hASBT [2]): 61.2 (9.9) % TCA Jmax
Absolute Jmax (hASBT [2]; [7]): 0.166 ± 0.024 pmol/cm^2/s
Pp (cm/s ± SEM x 10^6) (hASBT-MDCK monolayer [3]): 0.740 (0.120) cm/s x 10^6
Ki (hASBT [1]; [8]): 23.3 µM

Structure (SMILES): C[C@H](CCC(=O)NCC(=O)O)[C@H]1CC[C@H]2[C@@H]3CC[C@@H]4C[C@H](O)CC[C@]4(C)[C@H]3CC[C@]12C [Gly-LCA]
Ki (hASBT [4]): 0.427 µM
Relative Jmax (% TCA Jmax ±SEM) (hASBT [5]): 405 (64) % TCA Jmax
Pp (cm/s ± SEM x 10^6) (hASBT-MDCK monolayer [6]): 0.865 (0.780) cm/s x 10^6

Structure (SMILES): C[C@H](CCC(=O)NCC(=O)O)[C@H]1CC[C@H]2[C@@H]3[C@H](O)C[C@@H]4C[C@H](O)CC[C@]4(C)[C@H]3CC[C@]12C [Gly-CDCA]
Ki (hASBT [4]): 0.992 µM
Relative Jmax (% TCA Jmax ±SEM) (hASBT [5]): 432 (58) % TCA Jmax
Pp (cm/s ± SEM x 10^6) (hASBT-MDCK monolayer [6]): 0.414 (0.201) cm/s x 10^6
